For this assay, the target named is human recombinant PDE9 enzyme (Homo sapiens, UniProt O76083). Briefly: PDE9 IC50, 96-well assay (Phosphodiesterase SPA). The class given is biochemical.

Drawing on patent US8278295B2, “Amino-heterocyclic compounds” (Pfizer Inc., priority 2009, dated 2012), this text covers IC50 for one compound.

Sequence of human recombinant PDE9 enzyme (O76083 whole entry): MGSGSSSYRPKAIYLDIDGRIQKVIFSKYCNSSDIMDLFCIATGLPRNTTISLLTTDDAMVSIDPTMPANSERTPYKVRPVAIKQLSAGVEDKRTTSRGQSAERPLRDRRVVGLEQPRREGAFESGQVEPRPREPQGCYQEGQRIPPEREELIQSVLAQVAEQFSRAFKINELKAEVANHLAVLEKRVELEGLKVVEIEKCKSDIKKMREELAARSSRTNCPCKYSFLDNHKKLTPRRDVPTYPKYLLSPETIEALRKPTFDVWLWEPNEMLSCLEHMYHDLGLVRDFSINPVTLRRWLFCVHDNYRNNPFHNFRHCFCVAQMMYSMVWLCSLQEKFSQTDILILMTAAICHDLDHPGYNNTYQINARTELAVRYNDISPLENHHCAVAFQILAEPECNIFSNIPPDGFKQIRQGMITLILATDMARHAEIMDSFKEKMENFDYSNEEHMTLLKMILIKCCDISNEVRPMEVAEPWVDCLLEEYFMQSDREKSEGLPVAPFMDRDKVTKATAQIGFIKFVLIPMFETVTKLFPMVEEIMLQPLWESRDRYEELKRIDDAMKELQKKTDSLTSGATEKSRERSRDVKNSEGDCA
Experimental: PDE9 IC50, 96-well assay: The assay was performed using the Phosphodiesterase Scintillation Proximity (SPA) assay (GE Healthcare Life Sciences). […] The human recombinant PDE9 enzyme was generated in SF-9 cells, the cell pellets were sonicated in buffer (20 mM Tris, 2 mM benzamidine, 1 mM EDTA, 250 mM sucrose, 100 μM PMSF, pH 7.5 with HCl), centrifuged at 40,000×g for 20 min at 4° C. The supernatants were stored at −80° C. […] Test compounds were dissolved in DMSO, diluted in DI H2O and serially diluted in 20% DMSO/80% H2O, for a final concentration of 2% DMSO. For the assay the PDE9 was diluted with assay buffer such that 20% or less of the substrate was hydrolyzed to 5′GMP. Each assay well contained 10 μL of test compound or solvent, 40 μl of [^3H]cGMP and 50 μl of enzyme, background was determined by a high concentration of a PDE inhibitor. The assay was initiated with the addition of the enzyme and carried out at room temperature for 30 min. […] The plates were sealed, vortexed, allowed to set for >300 min, then counted in a Wallac TriLux MicroBeta LSC.

As usually defined, the IC50 is the concentration that inhibits the measured activity by half. With `C[C@H](c1nc2c(cnn2C2CCCC2)c(=O)[nH]1)N1CC(Oc2ncccn2)C1` [Example 13, 1-Cyclopentyl-6-{(1R)-1-[3-(pyrimidin-2-yloxy)azetidin-1-yl]ethyl}-1,5-dihydro-4H-pyrazolo[3,4-d]pyrimidin-4-one], the IC50 was 9.49 nM.
